In PMC5766630, “Non-estrogenic Xanthohumol Derivatives Mitigate Insulin Resistance and Cognitive Impairment in High-Fat Diet-induced Obese Mice” (Scientific Reports, 2018):

How the values were obtained:
[1] = target: T1, full-length purified human estrogen receptor ERα (Homo sapiens, UniProt P03372); assay: ERα competitive radiometric binding assay; details: RBA = IC50[estradiol]/IC50[compound] × 100, estradiol = 100; 2 nM [3H]-estradiol tracer, 18–24 h at 0 °C
T1 construct: full-length purified human estrogen receptors ERα and ERβ
T1 sequence (P03372 1-595): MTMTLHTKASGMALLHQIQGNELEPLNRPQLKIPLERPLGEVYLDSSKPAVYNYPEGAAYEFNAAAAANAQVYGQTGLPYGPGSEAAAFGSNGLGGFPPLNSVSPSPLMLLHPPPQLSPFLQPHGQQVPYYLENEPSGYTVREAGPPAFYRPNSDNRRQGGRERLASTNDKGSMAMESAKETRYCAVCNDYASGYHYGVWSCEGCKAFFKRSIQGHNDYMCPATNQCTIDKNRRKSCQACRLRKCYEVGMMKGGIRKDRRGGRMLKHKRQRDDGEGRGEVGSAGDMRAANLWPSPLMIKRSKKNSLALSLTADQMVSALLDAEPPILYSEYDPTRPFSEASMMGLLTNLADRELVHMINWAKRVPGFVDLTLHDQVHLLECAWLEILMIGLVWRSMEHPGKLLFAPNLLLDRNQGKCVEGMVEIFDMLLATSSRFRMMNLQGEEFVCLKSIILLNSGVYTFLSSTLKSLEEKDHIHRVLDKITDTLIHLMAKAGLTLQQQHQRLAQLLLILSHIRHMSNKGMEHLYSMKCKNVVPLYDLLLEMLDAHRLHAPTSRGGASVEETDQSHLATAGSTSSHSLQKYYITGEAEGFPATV
Description: The receptors and ligands were incubated for 18–24 h at 0 °C and then the receptor–ligand complexes separated using hydroxyapatite (BioRad, Hercules, CA, USA).

[2] = test system: skeletal muscle AMPK (pAMPKα/total AMPKα); assay: AMPK activation in skeletal muscle by Western blot; assay type: in vivo, mouse; details: HFD mice, 30 mg/kg/day, 13 weeks, vs control
Description: Approximately 150 mg of frozen liver and muscle tissues were homogenized in tubes containing RIPA buffer with protease and phosphatase inhibitors plus ceramic beads (1.4 mm Ceramic, Bulk Beads, Fisher Scientific, Pittsburgh, PA, USA) using a Precellys 24 (PEQLAB Biotechnology GmbH, Germany). Liver tissue was homogenized for 1 × 30 sec at 6,500 rpm whereas muscle was homogenized for 3 × 30 sec at 6,500 rpm with 20 sec intervals. The homogenates were centrifuged at 15,700 × g for 10 minutes and aliquots (50 µg of protein) of the supernatant (lysate) were separated by SDS-PAGE using 4–15% MP TGX Gels (Bio-Rad # 4561083) and blotted onto nitrocellulose membranes. Membranes were blocked with 5% nonfat milk for 2 h and incubated with antibodies against pAMPK (Phospho-AMPKα (Thr172) Antibody, cat. no. #2531 Cell Signaling Technology, Danvers, MA, USA), AMPK (AMPKα Antibody, cat. no. #2532 Cell Signaling Technology, Danvers, MA, USA), or β-actin (Santa Cruz Biotechnology) for 1 h or overnight. After a second reaction with secondary antibodies (horseradish peroxidase-conjugated IgG goat antirabbit or goat antimouse antibodies), the protein bands on the nitrocellulose membranes were visualized by enhanced chemiluminescence substrate on a Biorad ChemiDocTM MP Imaging System (BioRad Laboratories Inc, Hercules, CA, USA). Band intensities were quantified by densitometry using Image J software.

[3] = test system: MCF-7 cells; assay: MCF-7 cell proliferation, sulforhodamine B (SRB) assay; assay type: cell-based, human; details: 48 h exposure, vs vehicle control; for MCF-7 cell viability/proliferation at low concentrations: 0.001–1 µM
Description: The SRB assay has been used to study the effects of phytochemicals such as XN, DXN and 8-PN on cell proliferation of various cancer cell lines, including MCF-7 cells[91],[92]. SRB is a dye that binds to cellular proteins of adherent cells and the absorbance readings are a measure of the number of viable cells (cell mass) attached to the culture plate after incubation with the test compounds (samples) in comparison with vehicle control cells. The cell mass is then extrapolated as a measurement of cell viability and cell proliferation. Increased proliferation of MCF-7 cells is one of the measures of estrogenicity of phytochemicals. MCF-7 cells were plated at 10,000 cells/well in 96-well plates in DMEM medium containing 10% charcoal-stripped FBS and antibiotics. […] After incubation with the test compounds for 48 h, the cell culture medium was removed from each well of the 96-well plate and the cells were fixed for 1 h with 10% trichloroacetic acid. The cells on the plate were washed five with distilled water, air-dried, and then stained with SRB dye (0.4% w/v in 1% acetic acid). Excess dye was removed by washing the plate five times with 1% acetic acid. The plates were air-dried and the adsorbed dye was solubilized in 10 mM Tris buffer for 5 min on a shaker before reading the optical density (OD) at 565 nm. The percentage cell viability/proliferation was calculated as follows: (ODSample−ODZeroblank)/(ODControl−ODZeroblank)×100. Mean values and the coefficient of variation (CV) from six replicate wells were calculated and a one-way ANOVA was used to compare statistical differences between treated and control cells, with p < 0.05 as the level of significance.

[4] = test system: HepG2 cells; assay: MTT cell viability assay, HepG2; assay type: cell-based, human; details: 24 h exposure, vs vehicle-treated control cells
Description: For cell viability experiments using the MTT assay, mouse C2C12 skeletal muscle myoblasts (ATCC; Manassas, VA, USA) and the human hepatocyte cell line, HepG2 (ATCC; Manassas, VA, USA), were plated in 96-well plates at a density of 4,000 to 10,000 cells per well in 200 μL of DMEM medium supplemented with 10% FBS, 1% glutamine, 1 mM of sodium pyruvate, 100 units/mL penicillin, and 100 μg/mL streptomycin. After incubating 48 h, the medium was removed and the cells were treated with fresh solutions of various concentrations of XN, DXN or TXN in phenol red-free DMEM plus supplements. The final concentrations of XN, DXN, TXN were 1, 2, 5, 8, 10, 25, or 50 μM, in quadruplicate wells. The plates were then incubated for 1 h (for C2C12) or 24 h for HepG2. After removing the medium, the cells were incubated for 2 h with a 0.5 mg/mL solution of MTT in phenol red-free culture medium. After removing the medium and adding a solution of acidified isopropanol to each well, the absorbance of each well was measured at 570 nm by using a spectrometer (SpectraMax 190, Molecular Devices, Sunnyvale, CA, USA). Cell viability of compound-treated cells was calculated as % absorbance of vehicle-treated control cells (Supplementary Fig. S1a and S1b).

Q: For `COc1cc(O)c(CC=C(C)C)c(O)c1C(=O)CCc1ccc(O)cc1` [DXN, α,β-Dihydroxanthohumol], which “RBA ERα (relative binding affinity)” value [1] is on record?
A: Its value is 0.0029 ± 0.0007.

Q: What about the “Decrease of skeletal muscle AMPK activation (pAMPK/AMPK)” value (shortened to “Decrease … (pAMPK/AMPK)”) [2] of the same compound?
A: Its value is 22%.

Q: And the “MCF-7 cell viability/proliferation at 10 µM” value [3]?
A: Its value is “significantly decreased”.

Q: What about the “MCF-7 cell viability/proliferation at low concentrations” value [3] of the same compound?
A: Its value is “did not produce a significant increase”.

Q: What about the “HepG2 cell viability (MTT), 1–25 µM” value [4] of the same compound?
A: The value was “did not alter cell viability”.

Q: How did the “RBA ERα (relative binding affinity)” value [1] turn out when `COc1cc(O)c(CCC(C)C)c(O)c1C(=O)CCc1ccc(O)cc1` [TXN, tetrahydroxanthohumol] was run?
A: The value was 0.0033 ± 0.001.

Q: What about the “Decrease … (pAMPK/AMPK)” value [2] of the same compound?
A: Its value is 25%.

Q: What about the “MCF-7 cell viability/proliferation at 10 µM” value [3] of the same compound?
A: Its value is “significantly decreased”.

Q: And the “MCF-7 cell viability/proliferation at low concentrations” value [3]?
A: Its value is “did not produce a significant increase”.

Q: And the “HepG2 cell viability (MTT), 1–25 µM” value [4]?
A: Its value is “did not alter cell viability”.

Q: With `COc1cc(O)c(CC=C(C)C)c(O)c1C(=O)/C=C/c1ccc(O)cc1` [XN, 3′-[3,3-dimethylallyl]-2′,4′,4-trihydroxy-6′-methoxychalcone] as the compound, how does the “RBA ERα (relative binding affinity)” value [1] read?
A: The value was 0.0021 ± 0.0003.

Q: What about the “Decrease … (pAMPK/AMPK)” value [2] of the same compound?
A: The value was 19%.

Q: And the “MCF-7 cell viability/proliferation at 10 µM” value [3]?
A: Its value is “significantly decreased”.

Q: What about the “MCF-7 cell viability/proliferation at low concentrations” value [3] of the same compound?
A: The value was “did not produce a significant increase”.

Q: What about the “HepG2 cell viability (MTT), 1–25 µM” value [4] of the same compound?
A: Its value is “did not alter cell viability”.
